In patent publication US20020159994A1, “Biotin derivatives” (priority 2000, published 2002):

Target: T1, Mitra Avidin-Agarose (Gallus gallus, UniProt P02701)
T1 construct: Mitra (Mitra Medical Technology AB)
Assay: Adsorption of biotin-trimer to avidin-agarose column (conditioning, ELISA of recirculated fluid)
Type: binding
Parameters: biotin-trimer bound if one biotin-trimer is bound per available binding site: unit not given here
Description: Two mL of Mitra Avidin-Agarose was packed into a column housing and was washed with >10 mL of PBS at a flow rate of 1 mL/min (1.6 cm/min). Five mL of a 1 mg/mL solution of biotin-trimer in PBS was recirculated through the avidin-column at 1 mL/min for 20 minutes. At end of the recirculation, a sample (0.5 mL) was drawn from the recirculated solution and analysed by an ELISA technique developed by Mitra Medical Technology AB. The biotin-avidin-agarose-column was washed with phosphate buffer at 1 mL/min for 20 minutes. By determining the concentration of biotin-trimer in the recirculated fluid, the amount of adsorbed biotin-trimer was estimated to about 1.9 mg i.e. […] of gel at the end of recirculation.
Biotin-trimer was adsorbed to 2 mL of Mitra Avidin-Agarose. […] If one biotin-trimer is bound per available binding site this would correspond to […] biotin-trimer/mL. As about 0.95 mg biotin-trimer was bound per mL avidin-agarose it can be assumed that the adsorbent was saturated with biotin-trimer.

T1 sequence (P02701 25-152): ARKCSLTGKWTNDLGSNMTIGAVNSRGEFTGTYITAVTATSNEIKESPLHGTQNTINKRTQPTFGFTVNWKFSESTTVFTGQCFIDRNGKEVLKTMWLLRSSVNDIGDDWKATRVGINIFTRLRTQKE

O=C(CCCCC1OCC2NC(=O)NC21)NCCOCCOCCNC(=O)c1cc(C(=O)NCCOCCOCCNC(=O)CCCCC2OCC3NC(=O)NC32)cc(C(=O)NCCOCCOCCNC(=O)CCCCC2OCC3NC(=O)NC32)c1 (stereo not shown) [biotin-trimer]
biotin-trimer bound per mL avidin-agarose (2 mL Mitra Avidin-Agarose): about 0.95 mg per mL avidin-agarose | amount of adsorbed biotin-trimer at end of recirculation (2 mL Mitra Avidin-Agarose, 5 mL of 1 mg/mL biotin-trimer in PBS recirculated at 1 mL/min for 20 minutes): about 1.9 mg | amount of adsorbed biotin-trimer per mL of gel (2 mL Mitra Avidin-Agarose, end of 20 min recirculation): ~0.95 mg/mL | biotin-trimer bound if one biotin-trimer is bound per available binding site (theoretical, from static biotin binding capacity): 514
